# How the values were obtained:
# Test in all cases: relative viability (nuclei count vs DMSO), 5 days (fraction); higher = more cells survive
# [1] = test system: A-427
# In short: (§1)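 Cells from lung cancer lines were seeded into 1536-well plates and, one day later, dosed by pin tool. Treatments were either a single drug or a fixed dose of an anchor drug with five library-drug doses (not always all listed) in √10 steps. After 5 days, nuclei were stained in a one-step fixation (final 0.05% Triton X-100, 1% formaldehyde, 1 ug/ml Hoechst) and counted on 4× images, and relative viability is the treated-to-vehicle nuclei ratio, as the median of duplicate plates.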
# [2] = test system: ABC-1
# In short: as §1
# [3] = test system: EMC-BAC-2
# In short: as §1
# [4] = test system: HARA
# In short: as §1
# [5] = test system: HOP-62
# In short: as §1
# [6] = test system: LK-2
# In short: as §1
# [7] = test system: LXF-289
# In short: as §1
# [8] = test system: NCI-H1792
# In short: as §1
# [9] = test system: NCI-H1944
# In short: as §1
# [10] = test system: NCI-H1993
# In short: as §1
# [11] = test system: NCI-H2009
# In short: as §1
# [12] = test system: NCI-H2228
# In short: as §1
# [13] = test system: NCI-H3122
# In short: as §1
# [14] = test system: NCI-H322M
# In short: as §1
# [15] = test system: NCI-H596
# In short: as §1
# [16] = test system: NCI-H727
# In short: as §1
# [17] = test system: PC-3 [JPC-3]
# In short: as §1
# [18] = test system: SK-MES-1
# In short: as §1
# [19] = test system: SW 1573
# In short: as §1
structure (smiles),measurement,setting,value
CC(=O)O[C@@]12CO[C@@H]1C[C@H](O)[C@@]1(C)C(=O)[C@H](O)C3=C(C)[C@@H](OC(=O)[C@H](O)[C@@H](NC(=O)OC(C)(C)C)c4ccccc4)C[C@@](O)([C@@H](OC(=O)c4ccccc4)[C@H]21)C3(C)C [Docetaxel] + C[C@]1(O)C[C@@H](c2nc(-c3ccc4ccc(-c5ccccc5)nc4c3)c3c(N)nccn32)C1 [Linsitinib] (partner 1 µM),relative viability,[1]; first compound 0.0002 µM,1.09
same,relative viability,[1]; first compound 0.000632 µM,1.12
same,relative viability,[1]; first compound 0.002 µM,1.02
same,relative viability,[1]; first compound 0.02 µM,0.227
same,relative viability,[2]; first compound 0.0002 µM,0.834
same,relative viability,[2]; first compound 0.000632 µM,1
same,relative viability,[2]; first compound 0.002 µM,0.424
same,relative viability,[2]; first compound 0.006325 µM,0.286
same,relative viability,[2]; first compound 0.02 µM,0.218
same,relative viability,[3]; first compound 0.0002 µM,0.799
same,relative viability,[3]; first compound 0.000632 µM,0.665
same,relative viability,[3]; first compound 0.002 µM,0.463
same,relative viability,[3]; first compound 0.006325 µM,0.31
same,relative viability,[3]; first compound 0.02 µM,0.207
same,relative viability,[4]; first compound 0.0002 µM,0.739
same,relative viability,[4]; first compound 0.000632 µM,0.482
same,relative viability,[4]; first compound 0.002 µM,0.235
same,relative viability,[4]; first compound 0.006325 µM,0.0978
same,relative viability,[4]; first compound 0.02 µM,0.0632
same,relative viability,[5]; first compound 0.0002 µM,1.18
same,relative viability,[5]; first compound 0.000632 µM,0.672
same,relative viability,[5]; first compound 0.02 µM,0.128
same,relative viability,[6]; first compound 0.0002 µM,0.534
same,relative viability,[6]; first compound 0.000632 µM,0.445
same,relative viability,[6]; first compound 0.002 µM,0.154
same,relative viability,[6]; first compound 0.006325 µM,0.151
same,relative viability,[6]; first compound 0.02 µM,0.156
same,relative viability,[7]; first compound 0.0002 µM,0.989
same,relative viability,[7]; first compound 0.000632 µM,0.745
same,relative viability,[7]; first compound 0.002 µM,0.628
same,relative viability,[7]; first compound 0.006325 µM,0.144
same,relative viability,[7]; first compound 0.02 µM,0.106
same,relative viability,[8]; first compound 0.0002 µM,0.539
same,relative viability,[8]; first compound 0.000632 µM,0.509
same,relative viability,[8]; first compound 0.002 µM,0.379
same,relative viability,[8]; first compound 0.02 µM,0.0833
same,relative viability,[9]; first compound 0.0002 µM,1.11
same,relative viability,[9]; first compound 0.000632 µM,1.13
same,relative viability,[9]; first compound 0.002 µM,1.18
same,relative viability,[9]; first compound 0.006325 µM,0.349
same,relative viability,[9]; first compound 0.02 µM,0.208
same,relative viability,[10]; first compound 0.0002 µM,0.796
same,relative viability,[10]; first compound 0.000632 µM,0.739
same,relative viability,[10]; first compound 0.002 µM,0.807
same,relative viability,[10]; first compound 0.006325 µM,0.605
same,relative viability,[10]; first compound 0.02 µM,0.488
same,relative viability,[11]; first compound 0.0002 µM,1.15
same,relative viability,[11]; first compound 0.000632 µM,1.18
same,relative viability,[11]; first compound 0.002 µM,0.77
same,relative viability,[11]; first compound 0.006325 µM,0.522
same,relative viability,[11]; first compound 0.02 µM,0.187
same,relative viability,[12]; first compound 0.0002 µM,0.326
same,relative viability,[12]; first compound 0.000632 µM,0.197
same,relative viability,[12]; first compound 0.002 µM,0.173
same,relative viability,[12]; first compound 0.006325 µM,0.155
same,relative viability,[12]; first compound 0.02 µM,0.129
same,relative viability,[13]; first compound 0.0002 µM,1
same,relative viability,[13]; first compound 0.000632 µM,1
same,relative viability,[13]; first compound 0.002 µM,0.79
same,relative viability,[13]; first compound 0.006325 µM,0.349
same,relative viability,[13]; first compound 0.02 µM,0.218
same,relative viability,[14]; first compound 0.0002 µM,0.852
same,relative viability,[14]; first compound 0.000632 µM,0.989
same,relative viability,[14]; first compound 0.002 µM,0.878
same,relative viability,[14]; first compound 0.006325 µM,0.547
same,relative viability,[14]; first compound 0.02 µM,0.374
same,relative viability,[15]; first compound 0.0002 µM,1.02
same,relative viability,[15]; first compound 0.000632 µM,0.953
same,relative viability,[15]; first compound 0.002 µM,0.754
same,relative viability,[15]; first compound 0.006325 µM,0.761
same,relative viability,[15]; first compound 0.02 µM,0.437
same,relative viability,[16]; first compound 0.0002 µM,0.384
same,relative viability,[16]; first compound 0.000632 µM,0.307
same,relative viability,[16]; first compound 0.002 µM,0.22
same,relative viability,[16]; first compound 0.006325 µM,0.211
same,relative viability,[16]; first compound 0.02 µM,0.21
same,relative viability,[17]; first compound 0.0002 µM,0.983
same,relative viability,[17]; first compound 0.000632 µM,0.96
same,relative viability,[17]; first compound 0.002 µM,0.863
same,relative viability,[17]; first compound 0.006325 µM,0.37
same,relative viability,[17]; first compound 0.02 µM,0.184
same,relative viability,[18]; first compound 0.0002 µM,1.05
same,relative viability,[18]; first compound 0.000632 µM,0.967
same,relative viability,[18]; first compound 0.002 µM,0.634
same,relative viability,[18]; first compound 0.006325 µM,0.26
same,relative viability,[18]; first compound 0.02 µM,0.177
same,relative viability,[19]; first compound 0.0002 µM,0.804
same,relative viability,[19]; first compound 0.000632 µM,0.594
same,relative viability,[19]; first compound 0.002 µM,0.279
same,relative viability,[19]; first compound 0.006325 µM,0.276
same,relative viability,[19]; first compound 0.02 µM,0.178

# Source: the supplement of paper PMC10307832
